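A five-concentration, 48-hour dose response in 96-well plates underlies each endpoint, interpolated linearly between surrounding concentrations. TGI denotes the concentration required for complete inhibition of growth.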 Where a SMILES comes first, the peptide text is derived from it. The star is where a group is joined. Fmoc = O=C(OCC1c2ccccc2-c2ccccc21)*; Boc = CC(C)(C)OC(=O)* Bounds are passed on as bounds.

Our source for the TGI values is PubChem BioAssay (NCI).

What all share (assay): growth of human tumour cells (NCI), 48 h
The test system of experiment [1] is TK-10 renal.
In experiment [2] the test system is UO-31 renal.
Experiment [3] deals with DU-145 prostate.
For experiment [4], the system named is KM12 colon.
The test system of experiment [5] is HOP-62 NSCLC.
Experiment [6] concerns T-47D breast.
Experiment [7] relates to SW-620 colon.
The subject of experiment [8] is SK-MEL-2 melanoma.
In experiment [9] the test system is HCT-116 colon.
In experiment [10] the test system is A498 renal.

Consider `CC(OC(=O)C(CC(=O)OC(C)(C)C)NC(=O)OC(C)(C)C)C(=O)OCc1ccccc1` (stereo not given), for which the TGI in experiment [1], in experiment [2], in experiment [3], in [4], in [5] and in [6] was more than 100 µM in each case. Besides, the TGI in experiment [7], in experiment [8] and in experiment [9] was more than 100 µM each time.

In the case of `O=C(Nc1cccc2c1[nH]c1c(-c3ccccc3)nccc12)c1ccccc1[N+](=O)[O-]`, the TGI is more than 100 µM in experiment [1]; more than 100 µM in experiment [4]; 60.3 µM in experiment [10]; more than 100 µM in experiment [7]; more than 100 µM in experiment [8]; more than 100 µM in experiment [9].

On to `CC(C)(C)OC(=O)NCCCCC(NC(=O)C(Cc1c[nH]c2ccccc12)NC(=O)OCC1c2ccccc2-c2ccccc21)C(=O)N1CCCC1C(=O)NCC(N)=O` (stereo not given) (Fmoc-WK(Boc)PG-NH2; configuration not given here), for which the TGI in [1], in [2], in experiment [3], in experiment [4], in [5] and in experiment [6] was more than 100 µM in each case. Besides, the TGI in [7], in experiment [8] and in experiment [9] was more than 100 µM in each case.

On to `O=C(O)c1ccc(C2SCc3nc4ccccc4n32)cc1` (stereo not given), for which the TGI in experiment [1], in [2], in experiment [3], in experiment [4], in experiment [10] and in experiment [5] was more than 100 µM throughout. For the same molecule, the TGI in experiment [7], in experiment [8] and in experiment [9] was more than 100 µM each time.

For the molecule `Ic1cc2c(cc1C1SCCCS1)OCO2`, the TGI in experiment [1], in experiment [2], in experiment [4], in experiment [10], in [5] and in experiment [7] was more than 100 µM in each case. In addition, the TGI in [8] and in experiment [9] was more than 100 µM in each case.

For the molecule `O=c1cn[nH]c(=S)n1/N=C/c1c[nH]c2ccccc12`, the TGI in experiment [2], in experiment [3], in experiment [4], in [10], in [5] and in experiment [7] was more than 100 µM each time. The TGI in [8] and in [9] was more than 100 µM in each case.

Take `CSc1ccc(/C=C2\N=C(c3ccccc3)N(c3nc4cc(C)c(C)cc4s3)C2=O)cc1`: the TGI in [1] was more than 100 µM; in experiment [2], more than 100 µM; in experiment [3], more than 100 µM; in [4] it was more than 100 µM; in [5], 59.4 µM; in experiment [6] it was more than 100 µM. Moreover, the TGI in [7] was more than 100 µM; in [8], 34.1 µM; in experiment [9] it was 44.5 µM.

As for `C1CC[C@H]2SSC3CCCC[C@H]3SSC2C1` (stereo not given in full), the TGI in [1], in [2], in experiment [3], in [4], in [5] and in [6] was more than 100 µM each time. The TGI in [7] and in [9] was more than 100 µM in each case.

Take `CN1CN(c2ccccc2)C2(CCN(CCC3COc4ccccc4O3)CC2)C1=O` (stereo not given): the TGI in [1] was 48.2 µM; in experiment [2], 38.2 µM; in [3], more than 100 µM; in [4], 66.7 µM; in [6], 62.3 µM; in experiment [7], more than 100 µM. In experiment [9], the TGI was found to be 23.2 µM.

For the molecule `C=C(CN1CC2C[C@](C(=O)OC)(c3cc4ccccc4[nH]3)C1C(OC)C2OC)S(=O)(=O)c1ccccc1` (stereo not given in full), the TGI was 17.4 µM in [1]; 3.77 µM in [2]; 14.1 µM in experiment [3]; 10.7 µM in experiment [4]; 23.4 µM in [5]; 28.2 µM in experiment [6]. Besides, the TGI in experiment [7] turned out to be 22.8 µM; in experiment [8], 12.3 µM; in experiment [9], 7.08 µM.

Consider `C=C[C@]1(C)CCC2=C(CCC3C2(C)CCC[C@@]3(C)COC(C)=O)C1` (stereo not given in full), for which the TGI was found to be 59 µM in experiment [1]; 33.4 µM in experiment [2]; 34.7 µM in [4]; 54.3 µM in experiment [10]; 40.2 µM in experiment [5]; 35.5 µM in [7]. The TGI was 29 µM in experiment [8] and 30.9 µM in experiment [9].

Turning to `CCOC(=O)C(C(=S)SC)c1nn2c(=O)cc(C)nc2s1` (stereo not given), the TGI in experiment [1] is 61.9 µM; in [2], 40 µM; in experiment [3] it was 32.8 µM; in experiment [4], 65.3 µM; in [5] it was 42.7 µM; in experiment [6], 42.6 µM. The TGI in experiment [7] turned out to be 37.2 µM; in [8] it was 41.5 µM; in experiment [9], 34.3 µM.

Consider `O=C(O)C12CCCCC1CCCC2` (stereo not given), for which the TGI in experiment [1], in [4], in experiment [10], in experiment [5], in [7] and in experiment [9] was more than 100 µM in each case.

Consider `COc1ccc(C2C3CCc4ccccc4C3=NN2S(=O)(=O)c2ccc(/C=C/C(=O)O)cc2)cc1` (stereo not given), for which the TGI was more than 100 µM in experiment [1]; 38 µM in experiment [2]; more than 100 µM in experiment [3]; 43.4 µM in [4]; more than 100 µM in experiment [5]; more than 100 µM in experiment [6]. For the same molecule, the TGI in experiment [7] was more than 100 µM; in experiment [8], 9.79 µM; in experiment [9], 38.2 µM.

For the molecule `O=C1CSC(c2c[nH]c3ccccc23)N1c1ccccc1[N+](=O)[O-]` (stereo not given), the TGI in experiment [1], in experiment [2], in experiment [3], in experiment [4], in experiment [5] and in experiment [6] was more than 100 µM each time. Further, the TGI in [7] and in experiment [9] was more than 100 µM in each case.

As to `CCCCCC/C=C1\CCC(CN2CCOCC2)C1=O` (stereo not given), the TGI worked out at 26.4 µM in [1]; 27.5 µM in experiment [2]; 24.7 µM in [4]; 35.2 µM in [10]; 32.8 µM in [5]; 26.7 µM in [7]. In addition, the values for the TGI in [8] and in [9] were 33.4 µM and 27.7 µM, respectively.
